Measurements reported in patent publication US20150064109A1, “Quantified differentiation and identification of changes in tissue by enhancing differences in blood flow and metabolic activity” (priority 2013, published 2015).

Experiments:
breast tissue [1] = assay: Study 1: sestamibi breast imaging, maximal count activity (MCA) with Miraluma, SDD and HDD (B.E.S.T.) in ten women; assay type: in vivo, human; conditions: for MCA counts, Cancer: breast cancer tissue; for MCA counts, Inflamatory States: inflammatory breast tissue; for tissue differentiation: outcome in words, referring to FIG. 3 and Table 1
Method: Two sestamibi imaging studies were conducted. […] The results were also compared with biopsy data. All 10 women in the study had either an abnormality on mammography or a detectable lump on physical examination.
Subjects undergoing breast imaging arrived in the fasting state 15-30 minutes prior to the study. […] The IV was placed in the contralateral arm if there is a specific question regarding a specific breast. Sestamibi was administered intravenously four minutes into the study followed by a 10-20 cc normal saline flush to assure delivery of the isotope into the venous system, with imaging of the breast beginning ten minutes into the study. A SPECT camera was positioned in a stationary (planar) position for each of the images.
Breast imaging began with the patient placed in a prone position on top of a 6-inch foam pad designed to enhance the comfort of the patient while improving breast imaging. Each side of the 6-inch pad had breast inserts held in place by hook and loop-type adhesive strips, which were removed allowing each breast to be positioned through the openings in a dependent manner without breast compression. Planar breast imaging began with the BrQL breast (lateral view of breast in question or the right breast if neither breast was specifically suspected of having an abnormality), then the BrCL breast (lateral view of the breast contralateral to BrQL). Patients were then placed on their back for the anterior (BrAS) image of both breasts. Any areas of special concern, PO BrQ1 (posterior oblique view of 1st breast noted to have abnormal activity on initial views) and PO BrQ2 (posterior oblique view of the other breast if its activity is abnormal) were then imaged.
All images were acquired while the patient was prone, except for the anterior (BrAS) image, which was obtained while the patient was supine.
Breast image acquisition and reconstruction was performed using a Siemens orbiter Single Photon Emission Computed Tomography (SPECT) camera with 75 photomultiplier tubes (PMTs) and a 128 by 128 matrix, available from Siemens Medical Solutions, Malvern, Pa. The images were acquired with the camera head in a stationary (planar) position. The camera, computer and software providing quantification of maximal count activity (MCA) were supplied by NC Systems of Boulder, Colo. A low-energy high-resolution (LEHR) collimator was used providing a resolution of 3.4 mm.
(§1) Subjects arrive in a fasting state 15-30 minutes prior to the study. An 18-20 gauge intravenous catheter was placed either in the right antebrachium, or in the left antebrachium. The IV was placed in the contralateral arm if a specific breast was the breast in question. […] The catheter was flushed with 10-20 cc of normal saline immediately after the HDD had been given to assure introduction of all of the HDD into the venous system. […] Anterior images were obtained with the patient in a supine position.
(§2) An example of the blue-green format is shown in FIG. 2a, juxtaposed with resting images.
Following the image reconstruction and presentation of each breast image, the region of greatest maximal activity (MCA) was determined and “quantified.” MCA is a measure of detected radiation (gamma) emission acquired by the SPECT camera during the imaging process and reflects the amount of isotope present at any given time within the tissue of interest. See Fleming R M, Dooley W C, Boyd L B, Kubovy C, “Breast Enhanced Scintigraphy Testing (B.E.S.T.)—Increased accuracy in detecting breast cancer accomplished by combining breast and cardiac imaging,” 48th Annual Scientific Session of the Society of Nuclear Medicine, Toronto, Ontario, Canada, 26 Jun. 2001, the disclosure of which is incorporated herein by this reference. […] All readings and determination of MCA were determined for each breast prior to any knowledge of clinical, mammographic or pathologic information, which could in any way bias the results.

breast tissue [2] = assay: Study 2: B.E.S.T. (HDD-enhanced sestamibi) breast imaging, MCA compared with histopathology in 195 individuals; assay type: in vivo, human; conditions: mean ± SD; for MCA quantitative counts, Cancer: breast cancer (n=15); for MCA quantitative counts, Atypia (Pre-cancerous): cellular atypia (15 individuals); for MCA quantitative counts, Inflammatory States: inflammatory changes (n=77); for MCA quantitative counts, Normal: normal breast tissue (n=88)
Description: Tissue samples were obtained either through ductoscopy, fine needle aspiration or open biopsy and were interpreted by pathologists without knowledge of the sestamibi image results. Results were interpreted as being normal, inflammatory (including trauma, injury, infection, fibrocystic disease, radiation exposure and subsequent injury), atypia (with increasing order of cellular change progressing from hyperplasia to metaplasia/atypia to ductal carcinoma in situ) and cancer.
In a second study, one hundred and ninety five (195) (4 men, 191 women) individuals were studied using the enhanced (HDD) imaging approach. The study included four men having detectable breast lumps and 191 women, including 58 seeking additional information regarding breast disease concerns, and 133 with breast lumps and/or abnormal mammograms. The results of this study were also compared with biopsy data.
as §1, §2
Following the image reconstruction and presentation of each breast image, the region of greatest maximal activity (MCA) was determined and “quantified.” MCA is a measure of detected radiation (gamma) emission acquired by the SPECT camera during the imaging process and reflects the amount of isotope present at any given time within the tissue of interest. See Fleming R M, Dooley W C, Boyd L B, Kubovy C, “Breast Enhanced Scintigraphy Testing (B.E.S.T.)—Increased accuracy in detecting breast cancer accomplished by combining breast and cardiac imaging,” 48th Annual Scientific Session of the Society of Nuclear Medicine, Toronto, Ontario, Canada, 26 Jun. 2001, the disclosure of which is incorporated herein by this reference. […] All readings and determination of MCA were determined for each breast prior to any knowledge of clinical, mammographic or pathologic information, which could in any way bias the results. These procedures were performed at a recognized Center of Excellence for Nuclear Procedures under the direct supervision of a physician Boarded in Nuclear Imaging.
The outcomes of histopathologic specimens were compared with the MCA derived from sestamibi imaging. Descriptive statistical analysis of the MCAs were determined including mean±standard deviations and confidence intervals (CI) for the mean. Group comparisons were made using two-tailed t-tests to determine statistical differences defined as p-values of ≦0.05. Graphic representation of the means is shown for comparison purposes as well as raw data comparison for the histopathologic categories.

mitochondria = conditions: energy dependent manner; cited from earlier work

Row | Compound | MCA counts, Cancer (breast tissue [1]; mean ± SD, Study 1) | MCA counts, Cancer (breast tissue [1]; mean ± SD, Study 1, listed as B.E.S.T.©) | MCA counts, Inflamatory States (breast tissue [1]; mean ± SD, Study 1) | MCA counts, Normal (breast tissue [1]; normal breast tissue, mean ± SD, sestamibi 25-30 mCi iv, Study 1) | tissue differentiation (breast tissue [1]; listed as HDD) | MCA quantitative counts, Cancer (breast tissue [2]; listed as B.E.S.T. ©) | MCA quantitative counts, Cancer (breast tissue [2]; listed as B.E.S.T.©) | MCA quantitative counts, Atypia (Pre-cancerous) (breast tissue [2]; listed as B.E.S.T. ©) | MCA quantitative counts, Atypia (Pre-cancerous) (breast tissue [2]; listed as B.E.S.T.©) | MCA quantitative counts, Inflammatory States (breast tissue [2]; listed as B.E.S.T. ©) | MCA quantitative counts, Inflammatory States (breast tissue [2]; listed as B.E.S.T.©) | MCA quantitative counts, Normal (breast tissue [2]; listed as B.E.S.T. ©) | MCA quantitative counts, Normal (breast tissue [2]; listed as B.E.S.T.©) | tissue differentiation (breast tissue [1]) | sestamibi taken up by mitochondria (mitochondria)
1 | OCCN(CCO)c1nc(N2CCCCC2)c2nc(N(CCO)CCO)nc(N3CCCCC3)c2n1 [HDD/B.E.S.T. ©, dipyridamole] | 442.0 ± 5.7 counts | 442.0±5.7 counts | 228.8 ± 24.0 counts | 125.5 ± 31.5 counts | statistically significant at differentiating tissue types | 445.3 ± 83.3 counts | 445.3±83.3 counts | 307.7 ± 29.3 counts | 307.7±29.3 counts | 218.0 ± 40.3 counts | 218.0±40.3 counts | 145 ± 29.1 counts | 145.0±29.1 counts | – | –
2 | OCCN(CCO)c1nc(N2CCCCC2)c2nc(N(CCO)CCO)nc(N3CCCCC3)c2n1 [SDD, dipyridamole] | 285.8 ± 17.0 counts | – | 183.5 ± 19.0 counts | – | – | – | – | – | – | – | – | – | – | useless in tissue differentiation | –
3 | [99Tc+].[C-]#[N+]CC(C)(C)OC.[C-]#[N+]CC(C)(C)OC.[C-]#[N+]CC(C)(C)OC.[C-]#[N+]CC(C)(C)OC.[C-]#[N+]CC(C)(C)OC.[C-]#[N+]CC(C)(C)OC [sestamibi, Technetium-99m hexakis 2-methoxyisobutylisonitrile] | – | – | – | – | – | – | – | – | – | – | – | – | – | – | over 90%
